In patent US20140249135A1, “PIM KINASE INHIBITORS AND METHODS OF THEIR USE” (NOVARTIS AG, priority 2007, published 2014) one finds IC50 data, which are given here for 19 compounds.

Holding throughout (type): biochemical
For one assay, the target named is Pim2 kinase (Homo sapiens, UniProt Q9P1W9). Nature of the assay: Pim2 ATP depletion assay.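 Further: Luciferase-based luminescent readout of ATP remaining after PIM2 phosphorylates a BAD peptide, final 5 nM enzyme, 4 µM ATP, 10 µM peptide, 2.5% DMSO, run to roughly half ATP consumption.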 Conditions: read-out: PIM2 IC50.
Pim2 kinase, sequence (Q9P1W9 whole entry): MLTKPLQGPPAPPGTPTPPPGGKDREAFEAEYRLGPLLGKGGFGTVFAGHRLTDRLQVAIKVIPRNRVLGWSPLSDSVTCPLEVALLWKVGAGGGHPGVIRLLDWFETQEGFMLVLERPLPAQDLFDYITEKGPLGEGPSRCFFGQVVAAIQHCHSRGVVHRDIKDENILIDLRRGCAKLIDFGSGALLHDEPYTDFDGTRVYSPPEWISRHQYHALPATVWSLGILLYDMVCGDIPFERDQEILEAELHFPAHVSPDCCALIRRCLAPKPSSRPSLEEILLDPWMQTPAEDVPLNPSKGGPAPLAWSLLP
The next assay addresses Pim1 kinase (Homo sapiens, UniProt P11309). Nature of the assay: Pim1 ATP depletion assay.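 Further: Luciferase-luciferin luminescence readout of residual ATP after PIM1 transfers phosphate to a peptide substrate, 40 µM ATP added, reaction run to roughly half ATP consumption.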 Conditions: Pim1 ATP depletion assay; read-out: PIM1 IC50.
A further assay concerns the target Pim3 kinase (Homo sapiens, UniProt Q86V86). Nature of the assay: Pim3 ATP depletion assay. The note with it: read-out: PIM3 IC50.

Pim1 kinase, sequence (P11309 whole entry): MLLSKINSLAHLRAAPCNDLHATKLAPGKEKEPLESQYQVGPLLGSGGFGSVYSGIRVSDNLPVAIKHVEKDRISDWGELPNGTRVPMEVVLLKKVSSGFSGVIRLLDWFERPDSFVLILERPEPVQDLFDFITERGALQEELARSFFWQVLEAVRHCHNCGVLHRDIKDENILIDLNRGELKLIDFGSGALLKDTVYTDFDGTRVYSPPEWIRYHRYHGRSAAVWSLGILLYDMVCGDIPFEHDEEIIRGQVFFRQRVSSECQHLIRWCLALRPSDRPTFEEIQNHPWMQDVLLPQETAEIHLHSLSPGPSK

In the case of `Nc1cc(-c2ccncc2NC(=O)c2nc(-c3ccc(CN4CCOCC4)cc3)ccc2N)nc(C(F)(F)F)n1` [Example 572, 3-Amino-6-(4-morpholin-4-ylmethyl-phenyl)-pyridine-2-carboxylic acid [4-(6-amino-2-trifluoromethyl-pyrimidin-4-yl)-pyridin-3-yl]-amide], the IC50 on Pim2 kinase, on Pim1 kinase and on Pim3 kinase was below 1 µM each time.

For `CN1CCN(c2cc(-c3ccc(N)c(C(=O)Nc4cnccc4-c4cc(N)nc(C(F)(F)F)n4)n3)ccn2)CC1` [Example 573, 5-Amino-2′-(4-methyl-piperazin-1-yl)-[2,4′]bipyridinyl-6-carboxylic acid [4-(6-amino-2-trifluoromethyl-pyrimidin-4-yl)-pyridin-3-yl]-amide], the IC50 on Pim2 kinase, on Pim1 kinase and at Pim3 kinase was below 1 µM each time.

As for `CN1CCN(c2ccc(-c3ccc(N)c(C(=O)Nc4cnccc4-c4cc(N)nc(C(F)(F)F)n4)n3)cc2)CC1` [Example 574, 3-Amino-6-[4-(4-methyl-piperazin-1-yl)-phenyl]-pyridine-2-carboxylic acid [4-(6-amino-2-trifluoromethyl-pyrimidin-4-yl)-pyridin-3-yl]-amide], the IC50 on Pim2 kinase, at Pim1 kinase and on Pim3 kinase was below 1 µM each time.

Turning to `NC1CC(CO)CN(c2ccncc2NC(=O)c2nc(-c3c(F)cccc3F)ccc2F)C1` (stereo not drawn) [Example 575, 6-(2,6-Difluoro-phenyl)-3-fluoro-pyridine-2-carboxylic acid (5-amino-3-hydroxymethyl-3,4,5,6-tetrahydro-2H-[1,4′]bipyridinyl-3′-yl)-amide], the IC50 was below 1 µM on Pim2 kinase, below 1 µM at Pim1 kinase and 1 to 10 µM at Pim3 kinase.

Regarding `Nc1ccc(-c2c(F)cccc2F)nc1C(=O)Nc1cnccc1N1CC(N)CC(CO)C1` (stereo not drawn) [Example 576, 3-Amino-6-(2,6-difluoro-phenyl)-pyridine-2-carboxylic acid (5-amino-3-hydroxymethyl-3,4,5,6-tetrahydro-2H-[1,4′]bipyridinyl-3′-yl)-amide], the IC50 on Pim2 kinase, at Pim1 kinase and at Pim3 kinase was below 1 µM each time.

With `Nc1ccc(-c2ccccc2)nc1C(=O)Nc1cnccc1N1C[C@@H](N)C[C@@H](F)C1` [Example 578, 3-Amino-6-phenyl-pyridine-2-carboxylic acid (3-amino-5-fluoro-3,4,5,6-tetrahydro-2H-[1,4′]bipyridinyl-3′-yl)-amide], the IC50 at Pim2 kinase, on Pim1 kinase and at Pim3 kinase was below 1 µM throughout.

Take `CCCOc1ccc(F)c(-c2ccc(N)c(C(=O)Nc3cnccc3N3C[C@@H](N)C[C@H](O)C3)n2)c1` [Example 581, 3-Amino-6-(2-fluoro-5-propoxy-phenyl)-pyridine-2-carboxylic acid (3-amino-5-hydroxy-3,4,5,6-tetrahydro-2H-[1,4′]bipyridinyl-3′-yl)-amide]: the IC50 at Pim2 kinase, at Pim1 kinase and at Pim3 kinase was below 1 µM each time.

Consider `Nc1ccc(-c2ccccc2)nc1C(=O)Nc1cnccc1N1C[C@@H](N)C[C@H](O)C1` [Example 582, 3-Amino-6-phenyl-pyridine-2-carboxylic acid (3-amino-5-hydroxy-3,4,5,6-tetrahydro-2H-[1,4′]bipyridinyl-3′-yl)-amide], for which the IC50 on Pim2 kinase was 1 to 10 µM; on Pim1 kinase, below 1 µM; on Pim3 kinase it was below 1 µM.

For `COc1ncccc1-c1ccc(N)c(C(=O)Nc2cnccc2-c2ccccc2C)n1` [Example 584, 5-amino-2′-methoxy-[2,3′]bi-pyridinyl-6-carboxylic acid (4-o-tolyl-pyridin-3-yl)-amide], the results for the IC50 on Pim2 kinase, at Pim1 kinase and on Pim3 kinase were 1 to 10 µM, below 1 µM and below 1 µM, respectively.

As to `Cc1ccccc1-c1ccncc1NC(=O)c1nc(-c2c(F)cccc2F)ccc1N` [Example 585, 3-amino-6-(2,6-difluoro-phenyl)-pyridine-2-carboxylic acid (4-o-tolyl-pyridin-3-yl)-amide], the IC50 on Pim2 kinase, on Pim1 kinase and at Pim3 kinase was below 1 µM each time.

As for `Cc1ccccc1-c1ccncc1NC(=O)c1nc(-c2ccccc2F)ccc1N` [Example 586, 3-amino-6-(2-fluoro-phenyl)-pyridine-2-carboxylic acid (4-o-tolyl-pyridin-3-yl)-amide], the IC50 is 1 to 10 µM on Pim2 kinase, below 1 µM at Pim1 kinase and below 1 µM at Pim3 kinase.

`Nc1ccc(-c2c(F)cccc2F)nc1C(=O)Nc1cnccc1N1CCCCC1` [Example 588, 3-amino-6-(2,6-difluoro-phenyl)-pyridine-2-carboxylic acid (3,4,5,6-tetrahydro-2H-[1,4′]bipyridinyl-3′-yl)-amide]: the IC50 on Pim2 kinase, at Pim1 kinase and at Pim3 kinase was below 1 µM each time.

Take `Nc1ccc(-c2ccccc2F)nc1C(=O)Nc1cnccc1N1CCCCC1` [Example 589, 3-amino-6-(2-fluoro-phenyl)-pyridine-2-carboxylic acid (3,4,5,6-tetrahydro-2H-[1,4′]bipyridinyl-3′-yl)-amide]: the IC50 at Pim2 kinase, at Pim1 kinase and on Pim3 kinase was below 1 µM in each case.

Consider `Nc1ncc(Br)nc1C(=O)Nc1cnccc1N1CCCC(N(Cc2ccccc2)Cc2ccccc2)C1` (stereo not drawn) [Example 599, 3-amino-6-bromo-pyrazine-2-carboxylic acid (3-dibenzylamino-3,4,5,6-tetrahydro-2H-[1,4′]bi-pyridinyl-3′-yl)-amide], for which the IC50 on Pim2 kinase is 1 to 10 µM; on Pim1 kinase it was below 1 µM; at Pim3 kinase, 1 to 10 µM.

For `Nc1ccc(-c2ccccc2F)nc1C(=O)Nc1cnccc1-c1cncc(F)c1` [Example 601, 3-amino-N-(5-fluoro-3,4′-bipyridin-3′-yl)-6-(2-fluorophenyl)pyridine-2-carboxamide], the half-inhibitory concentration (IC50) at Pim2 kinase, at Pim1 kinase and on Pim3 kinase was below 1 µM throughout.

Regarding `Nc1ccc(-c2ccccc2F)nc1C(=O)Nc1cnccc1-c1cncnc1` [Example 602, 3-amino-6-(2-fluorophenyl)-N-(4-pyrimidin-5-ylpyridin-3-yl)pyridine-2-carboxamide], the IC50 on Pim2 kinase is 1 to 10 µM; at Pim1 kinase, below 1 µM; on Pim3 kinase it was below 1 µM.

For the compound `Nc1ccc(-c2ccccc2F)nc1C(=O)Nc1cnccc1-c1cnc(N)c(C(F)(F)F)c1` [Example 603, 3-amino-N-[6-amino-5-(tri-fluoromethyl)-3,4′-bipyridin-3′-yl]-6-(2-fluorophenyl)pyridine-2-carboxamide], the IC50 at Pim2 kinase, at Pim1 kinase and at Pim3 kinase was below 1 µM each time.

As for `Nc1ccc(-c2ccncc2NC(=O)c2nc(-c3ccccc3F)ccc2N)cn1` [Example 604, 3-amino-N-(6-amino-3,4′-bipyridin-3′-yl)-6-(2-fluoro-phenyl)pyridine-2-carboxamide], the 50% inhibitory concentration (IC50) on Pim2 kinase, at Pim1 kinase and on Pim3 kinase was below 1 µM each time.

For `Nc1cc(-c2ccncc2NC(=O)c2nc(-c3ccccc3F)ccc2N)ccn1` [Example 605, 3-amino-N-(2′-amino-4,4′-bipyridin-3-yl)-6-(2-fluorophenyl)pyridine-2-carboxamide], the IC50 at Pim2 kinase, at Pim1 kinase and at Pim3 kinase was below 1 µM each time.
